From patent US8614218B2, “Fused bicyclic pyrimidines” (Bayer Intellectual Property GmbH, priority 2007, dated 2013)

Tests used:
A549 cells = experiment: Cellular proliferation/cytotoxicity assay (Alamar Blue), A549; assay type: cell-based; conditions: Homo sapiens, 72 h, Alamar Blue (Resazurin), read-out: Anti-proliterative/Cytotoxic activity (A549 cells)
Experimental: (§1) Cellular Proliferation/Cytotoxicity Assay:
(§2) The anti-proliferative activity of the compounds as described herein, is evaluated using the OvCAR3, HCT116 and A549 cell lines and the Alamar Blue (Resazurin) cell viability assay (O'Brien et al. Eur J Biochem 267, 5421-5426, 2000). Resazurin is reduced to the fluorescent resorufin by cellular dehydrogenase activity, correlating with viable, proliferating cells. Test compounds are dissolved as 10 mM solutions in DMSO and subsequently diluted. Cells like HCT116 or A549 cells were seeded into 96 well flat bottom plates at a density of 10000 cells/well (OvCAR3 cells), 1000 cells/well (HCT116 cells) or 2000 cells/well (A549 cells) in a volume of 200 μl/well. 24 hours after seeding, 1 μl each of the compound dilutions are added into each well of the 96 well plates. Each compound dilution is tested as at least as duplicates. Wells containing untreated control cells were filled with 200 μl DMEM (Dulbecco's Modified Eagle Medium) containing 0.5 vol % v:v DMSO. The cells are then incubated with the substances for 72 h at 37° C. in a humidified atmosphere containing 5 vol % CO2. To determine the viability of the cells, 20 μl of a Resazurin solution (90 mg/l) are added. After 4 h incubation at 37° C., the fluorescence is measured by extinction at λ=544 nm and an emission of λ=590 nm (Wallac Victor2; Perkin Elmer, USA). For the calculation of the cell viability, the emission value from untreated cells is set as 100% viability and the fluorescence intensity of treated cells are set in relation to the values of untreated cells. Viabilities are expressed as % values. The corresponding IC50 values of the compounds for cytotoxic activity are determined from the concentration-effect curves by means of non-linear regression. The analysis of the data is performed using a biostatistical program (GraphPad Prism, USA).
(§3) Representative IC50 values for anti-proliferative/cytotoxic potency determined in the aforementioned assay follow from the following table, in which the numbers of the compound correspond to the numbers of the examples.

OvCAR3 cells = experiment: Cellular proliferation/cytotoxicity assay (Alamar Blue), OvCAR3; assay type: cell-based; conditions: Homo sapiens, OVCAR-3, 72 h, Alamar Blue (Resazurin), read-out: Anti-proliferative/Cytotoxic activity (OvCAR3 cells)
Experimental: as §1, §2, §3

Row | Compound | IC50 (A549 cells) | IC50 (OvCAR3 cells)
1 | c1ccc(-c2cn3ccnc3nc2-c2ccc(CN3CCC(c4nc(-c5ccccn5)n[nH]4)CC3)cc2)cc1 [Example 1, 6-phenyl-7-(4-{[4-(3-pyridin-2-yl-1,2,4-triazol-5-yl)piperidin-1-yl]methyl}phenyl)imidazo[1,2-a]pyrimidine] | > 10 µM | < 10 µM
2 | c1ccc(-c2cn3ncnc3nc2-c2ccc(CN3CCC(c4n[nH]c(-c5ccccn5)n4)CC3)cc2)cc1 [Example 2, 6-phenyl-5-(4-{[4-(5-pyridin-2-yl-1,2,4-triazol-3-yl)piperidin-1-yl]methyl}phenyl)[1,2,4]triazolo[1,5-a]pyrimidine] | > 10 µM | < 10 µM
3 | Cc1nc2nc(-c3ccc(CN4CCC(c5n[nH]c(-c6ccccn6)n5)CC4)cc3)c(-c3ccccc3)cn2n1 [Example 3, 2-methyl-6-phenyl-5-(4-{[4-(5-pyridin-2-yl-1,2,4-triazol-3-yl)piperidin-1-yl]methyl}phenyl)[1,2,4]triazolo[1,5-a]pyrimidine] | < 10 µM | < 10 µM
4 | c1ccc(-c2cn3nc(C4CC4)nc3nc2-c2ccc(CN3CCC(c4n[nH]c(-c5ccccn5)n4)CC3)cc2)cc1 [Example 4, 2-cyclopropyl-6-phenyl-5-(4-{[4-(5-pyridin-2-yl-1,2,4-triazol-3-yl)piperidin-1-yl]methyl}phenyl)[1,2,4]triazolo[1,5-a]pyrimidine] | < 10 µM | < 10 µM
5 | c1ccc(-c2cn3ccnc3nc2-c2ccc(CN3CCC(c4cc(-c5ccccn5)n[nH]4)CC3)cc2)cc1 [Example 5, 6-phenyl-7-(4-{[4-(3-pyridin-2-yl-pyrazol-5-yl)piperidin-1-yl]methyl}phenyl)imidazo[1,2-a]pyrimidine] | < 10 µM | < 10 µM
6 | c1ccc(-c2cn3ccnc3nc2-c2ccc(CN3CCC(c4n[nH]c(-c5ccncc5)n4)CC3)cc2)cc1 [Example 6, 6-phenyl-7-(4-{[4-(5-pyridin-4-yl-1,2,4-triazol-3-yl)piperidin-1-yl]methyl}phenyl)imidazo[1,2-a]pyrimidine] | < 10 µM | < 10 µM
7 | c1ccc(-c2cn3nc(C4CCC4)nc3nc2-c2ccc(CN3CCC(c4n[nH]c(-c5ccccn5)n4)CC3)cc2)cc1 [Example 7, 2-cyclobutyl-6-phenyl-5-(4-{[4-(5-pyridin-2-yl-1,2,4-triazol-3-yl)piperidin-1-yl]methyl}phenyl)[1,2,4]triazolo[1,5-a]pyrimidine] | > 10 µM | < 10 µM
8 | N#Cc1cnc2nc(-c3ccc(CN4CCC(c5n[nH]c(-c6ccccn6)n5)CC4)cc3)c(-c3ccccc3)cn12 [Example 8, 6-phenyl-7-(4-{[4-(5-pyridin-2-yl-1,2,4-triazol-3-yl)piperidin-1-yl]methyl}phenyl)imidazo[1,2-a]pyrimidine-3-carbonitrile] | > 10 µM | < 10 µM
9 | Fc1cnc2nc(-c3ccc(CN4CCC(c5n[nH]c(-c6ccccn6)n5)CC4)cc3)c(-c3ccccc3)cn12 [Example 9, 3-fluoro-6-phenyl-7-(4-{[4-(5-pyridin-2-yl-1H-1,2,4-triazol-3-yl)piperidin-1-yl]methyl}phenyl)imidazo[1,2-a]pyrimidine] | > 10 µM | < 10 µM
10 | CNc1c(-c2ccccc2)c(-c2ccc(CN3CCC(c4n[nH]c(-c5ccccn5)n4)CC3)cc2)nc2nccn12 [Example 10, N-methyl-6-phenyl-7-(4-{[4-(5-pyridin-2-yl-1,2,4-triazol-3-yl)piperidin-1-yl]methyl}phenyl)imidazo[1,2-a]pyrimidin-5-amine] | > 10 µM | < 10 µM
11 | Brc1cnc2nc(-c3ccc(CN4CCC(c5n[nH]c(-c6ccccn6)n5)CC4)cc3)c(-c3ccccc3)cn12 [Example 11, 3-bromo-6-phenyl-7-(4-{[4-(5-pyridin-2-yl-1,2,4-triazol-3-yl)piperidin-1-yl]methyl}phenyl)imidazo[1,2-a]pyrimidine] | > 10 µM | < 10 µM
12 | Clc1cnc2nc(-c3ccc(CN4CCC(c5n[nH]c(-c6ccccn6)n5)CC4)cc3)c(-c3ccccc3)cn12 [Example 12, 3-chloro-6-phenyl-7-(4-{[4-(5-pyridin-2-yl-1,2,4-triazol-3-yl)piperidin-1-yl]methyl}phenyl)imidazo[1,2-a]pyrimidine] | < 10 µM | < 10 µM
13 | C#Cc1cnc2nc(-c3ccc(CN4CCC(c5n[nH]c(-c6ccccn6)n5)CC4)cc3)c(-c3ccccc3)cn12 [Example 13, 3-ethynyl-6-phenyl-7-(4-{[4-(5-pyridin-2-yl-1,2,4-triazol-3-yl)piperidin-1-yl]methyl}phenyl)imidazo[1,2-a]pyrimidine] | < 10 µM | < 10 µM
14 | Cc1cnc2nc(-c3ccc(CN4CCC(c5n[nH]c(-c6ccccn6)n5)CC4)cc3)c(-c3ccccc3)cn12 [Example 14, 3-methyl-6-phenyl-7-(4-{[4-(5-pyridin-2-yl-1,2,4-triazol-3-yl)piperidin-1-yl]methyl}phenyl)imidazo[1,2-a]pyrimidine] | < 10 µM | < 10 µM
15 | C=Cc1cnc2nc(-c3ccc(CN4CCC(c5n[nH]c(-c6ccccn6)n5)CC4)cc3)c(-c3ccccc3)cn12 [Example 15, 6-phenyl-7-(4-{[4-(5-pyridin-2-yl-1,2,4-triazol-3-yl)piperidin-1-yl]methyl}phenyl)-3-vinylimidazo[1,2-a]pyrimidine] | > 10 µM | < 10 µM
16 | CCOC(=O)c1cn2cc(-c3ccccc3)c(-c3ccc(CN4CCC(c5n[nH]c(-c6ccccn6)n5)CC4)cc3)nc2n1 [Example 16, Ethyl 6-phenyl-7-(4-{[4-(5-pyridin-2-yl-1,2,4-triazol-3-yl)piperidin-1-yl]methyl}phenyl)imidazo[1,2-a]pyrimidine-2-carboxylate] | > 10 µM | < 10 µM
17 | CCc1cn2cc(-c3ccccc3)c(-c3ccc(CN4CCC(c5n[nH]c(-c6ccccn6)n5)CC4)cc3)nc2n1 [Example 17, 2-ethyl-6-phenyl-7-(4-{[4-(5-pyridin-2-yl-1,2,4-triazol-3-yl)piperidin-1-yl]methyl}phenyl)imidazo[1,2-a]pyrimidine] | < 10 µM | < 10 µM
18 | c1ccc(-c2cn3ccnc3nc2-c2ccc(CN3CCC(c4n[nH]c(-c5ncccn5)n4)CC3)cc2)cc1 [Example 18, 6-phenyl-7-(4-{[4-(5-pyrimidin-2-yl-1,2,4-triazol-3-yl)piperidin-1-yl]methyl}phenyl)imidazo[1,2-a]pyrimidine] | > 10 µM | < 10 µM
19 | O=C(O)c1cc2nc(-c3ccc(CN4CCC(c5n[nH]c(-c6ccccn6)n5)CC4)cc3)c(-c3ccccc3)cn2n1 [Example 79, 6-Phenyl-5-(4-{[4-(5-pyridin-2-yl-1H-1,2,4-triazol-3-yl)piperidin-1-yl]methyl}phenyl)pyrazolo[1,5-a]pyrimidine-2-carboxylic acid] | < 10 µM | –
20 | Cc1nc2nc(-c3ccc(CN4CCC(c5nc(-c6ccco6)n[nH]5)CC4)cc3)c(-c3ccccc3)cn2n1 [Example 80, 5-[4-({4-[3-(2-furyl)-1H-1,2,4-triazol-5-yl]piperidin-1-yl}methyl)phenyl]-2-methyl-6-phenyl[1,2,4]triazolo[1,5-a]pyrimidine] | > 10 µM | –
21 | c1ccc(-c2cn3nccc3nc2-c2ccc(CN3CCC(c4nc(-c5ccco5)n[nH]4)CC3)cc2)cc1 [Example 81, 5-[4-({4-[3-(2-furyl)-1H-1,2,4-triazol-5-yl]piperidin-1-yl}methyl)phenyl]-6-phenylpyrazolo[1,5-a]pyrimidine] | < 10 µM | –
22 | c1ccc(-c2cn3ccnc3nc2-c2ccc(CN3CCC(c4nc(-c5ccco5)n[nH]4)CC3)cc2)cc1 [Example 82, 7-[4-({4-[3-(2-furyl)-1H-1,2,4-triazol-5-yl]piperidin-1-yl}methyl)phenyl]-6-phenylimidazo[1,2-a]pyrimidine] | > 10 µM | –
23 | Cc1nc2nc(-c3ccc(CN4CCC(c5nc(-c6ccccc6)n[nH]5)CC4)cc3)c(-c3ccccc3)cn2n1 [Example 83, 2-methyl-6-phenyl-5-(4-{[4-(3-phenyl-1H-1,2,4-triazol-5-yl)piperidin-1-yl]methyl}phenyl)[1,2,4]triazolo[1,5-a]pyrimidine] | > 10 µM | –
24 | COc1ccnc(-c2nc(C3CCN(Cc4ccc(-c5nc6nccn6cc5-c5ccccc5)cc4)CC3)n[nH]2)c1 [Example 84, 7-[4-({4-[5-(4-methoxypyridin-2-yl)-1H-1,2,4-triazol-3-yl]piperidin-1-yl}methyl)phenyl]-6-phenylimidazo[1,2-a]pyrimidine] | < 10 µM | –
25 | c1ccc(-c2cn3ccnc3nc2-c2ccc(CN3CCC(c4n[nH]c(-c5ccccn5)n4)CC3)cc2)cc1 [Example 85, 6-phenyl-7-{4-[4-(5-pyridin-2-yl-1H-[1,2,4]triazol-3-yl)-piperidin-1-ylmethyl]-phenyl}-imidazo[1,2-a]pyrimidine] | > 10 µM | –
